Results: US6503940B2, “Prodrugs for antimicrobial amidines” (The University of North Carolina at Chapel Hill, priority 1999, dated 2003)

What was measured:
Pneumocystis carinii [1] = assay: Anti-Pneumocystis carinii pneumonia activity in immunosuppressed rat model; type: in vivo
Protocol: (§1) In the examples which follow, melting points were recorded using a Thomas-Hoover (Uni-Melt) capillary melting point apparatus and were uncorrected. TLC analysis was carried out on silica gel 60 F254 pre-coated aluminum sheets (0.20 mm layer thickness) (E. Merck of Whitehouse Station, N.J.) and detected under UV light. IR spectra were recorded using Perkin-Elmer Model 337 spectrometer sold by Perkin-Elmer of Norwalk, Conn. ^1H and ^13C NMR spectra were recorded employing a Varian GX400 or a Varian Unityplus 300 spectrometer (both sold by Varian of Palo Alto, Calif.) and chemical shifts (δ) are in ppm relative to TMS as internal standard. Mass Spectra were recorded on a VG Analytical 70-SE spectrometer (Georgia Institute of Technology, Atlanta, Ga.). IR spectra were recorded using a Perkin-Elmer 2000 instrument. […] All chloroformates were purchased from Aldrich Chemical Co. of St. Louis, Mo. Other chemicals and solvents were purchased from either Aldrich or Fischer Scientific of Houston, Tex. […] See Baijic, M., et al., Heterocycl. Commun., 1996, 2, pp. 135-140; Das, B. P., J. Med. Chem. 1977, 20, pp. 531-536; and Boykin, D. W., et al., Bioorg. Med. Chem Lett., 1996, 6, pp. 3017-3020. Anti-Pneumocystis carinii pneumonia activity screening was carried out according to published methods. See Jones, S. K. et al., Antimicrob. Agents Chemother., 1990, 34, pp. 1026-1030; Hall, J. E., et al., Antimicrob. Agents Chemother., 1998, 42, pp. 666-674; and Tidwell, R. R., et al., J. Med. Chem., 1990, 33, pp. 1252-1257. Compounds were routinely tested orally at 33 μmol/kg/day and intravenously at 22 μmol/kg/day. Saline- and pentamidine treated groups of rats were included as negative and positive controls, respectively.

[2] = Toxicity observed in rats of the anti-PCP screening; settings: rat
Protocol: as §1

Pneumocystis carinii [3] = assay: Anti-Pneumocystis carinii pneumonia activity in immunosuppressed rat model; type: in vivo; remark: listed apart in the source

Molecule	Cysts/g of lung (% of control) (Pneumocystis carinii [1]; Oral @ 33.0 μmol/kg/day)	Cysts/g of lung (% of control) (Pneumocystis carinii [1]; iv @ 22.0 μmol/kg/day)	Toxicity ([2]; Oral @ 33.0 μmol/kg/day)	Toxicity ([2]; iv @ 22.0 μmol/kg/day)	also measured
2,5-bis[4-(N-2,2,2-trichloroethoxycarbonyl)amidinophenyl]furan [Compound 3]	8.59 ± 9.14 % of control	1.85 ± 1.79 % of control	0	0	
[H]/N=C(\N)c1ccc(-c2ccc(-c3ccc(/C(N)=N/[H])cc3)o2)cc1 [Compound 1, 2,5-Bis(4-amidinophenyl)furan, reference compound]					Cysts/g of lung (% of control) (Pneumocystis carinii [3]; Oral @ 39.8 μmol/kg/day): 44.52 ± 13.30 % of control; Cysts/g of lung (% of control) (Pneumocystis carinii [3]; iv @ 13.3 μmol/kg/day): 0.83 ± 0.36 % of control; Toxicity ([2]; Oral @ 39.8 μmol/kg/day): 0; Toxicity ([2]; iv @ 13.3 μmol/kg/day): 0
COC(=O)NC(=N)c1ccc(-c2ccc(-c3ccc(C(=N)NC(=O)OC)cc3)o2)cc1 [Compound 2, 2,5-Bis[4-(N-methoxycarbonyl)amidinophenyl]furan]	49.68 ± 20.50 % of control	6.91 ± 6.01 % of control	0	0	
CCSC(=O)N=C(N)c1ccc(-c2ccc(-c3ccc(C(N)=NC(=O)SCC)cc3)o2)cc1 [Compound 4, 2,5-bis[4-(N-thioethylcarbonyl)amidinophenyl]furan]	19.52 ± 14.22 % of control	83.01 ± 43.65 % of control	0	0	
NC(=NC(=O)OCc1ccccc1)c1ccc(-c2ccc(-c3ccc(C(N)=NC(=O)OCc4ccccc4)cc3)o2)cc1 [Compound 5, 2,5-bis[4-(N-benzyloxycarbonyl)amidinophenyl]furan]	18.09 ± 9.16 % of control				Cysts/g of lung (% of control) (Pneumocystis carinii [3]; iv @ 11.0 μmol/kg/day): 0.03 ± 0.02 % of control
Cc1oc(=O)oc1COC(=O)N=C(N)c1ccc(-c2ccc(-c3ccc(C(N)=NC(=O)OCc4oc(=O)oc4C)cc3)o2)cc1 [Compound 6, 2,5-bis{4-[N-(5-methyl-2-oxo-1,3-dioxol-4-ene-1-yl)methoxycarbonyl]amidinophenyl}furan]	18.73 ± 11.87 % of control	0.02 ± 0.01 % of control	0	0	
NC(=NC(=O)Oc1ccccc1)c1ccc(-c2ccc(-c3ccc(C(N)=NC(=O)Oc4ccccc4)cc3)o2)cc1 [Compound 7, 2,5-Bis[4-(N-phenoxycarbonyl)amidinophenyl]furan]	5.70 ± 5.15 % of control	3.61 ± 1.80 % of control	0	0	
NC(=NC(=O)Oc1ccc(F)cc1)c1ccc(-c2ccc(-c3ccc(C(N)=NC(=O)Oc4ccc(F)cc4)cc3)o2)cc1 [Compound 8, 2,5-bis[4-(N-(4-fluoro)phenoxycarbonyl)amidinophenyl]furan]	2.21 ± 0.33 % of control	0.02 ± 0.01 % of control	0	0	
COc1ccc(OC(=O)N=C(N)c2ccc(-c3ccc(-c4ccc(C(N)=NC(=O)Oc5ccc(OC)cc5)cc4)o3)cc2)cc1 [Compound 9, 2,5-bis[4-(N-(4-methoxy)phenoxycarbonyl)amidinophenyl]furan]	2.10 ± 2.08 % of control	0.02 ± 0.01 % of control	0	0	
CC(=O)OC(C)OC(=O)NC(=N)c1ccc(-c2ccc(-c3ccc(C(=N)NC(=O)OC(C)OC(C)=O)cc3)o2)cc1 (stereo not drawn) [Compound 10, 2,5-bis[4(1-Acetoxyethoxycarbonyl)amidinophenyl]furan]	57.16 ± 10.19 % of control		0		Cysts/g of lung (% of control) (Pneumocystis carinii [3]; iv @ 11.0 μmol/kg/day): 1.21 ± 1.02 % of control
CCOC(=O)ON=C(N)c1ccc(-c2ccc(-c3ccc(C(N)=NOC(=O)OCC)cc3)o2)cc1 [Compound 11, 2,5-bis[4(N-ethoxycarbonyloxy)amidinophenyl]furan]	96.90 ± 48.48 % of control		0		Cysts/g of lung (% of control) (Pneumocystis carinii [3]; iv @ 34.7 μmol/kg/day): 1.66 ± 0.58 % of control; Toxicity ([2]; iv @ 34.7 μmol/kg/day): 0
N=C(N)c1ccc(OCCCCCOc2ccc(C(=N)N)cc2)cc1 [Pentamidine, 1,5-bis(4-amidinophenoxy)pentane, reference compound]		3.06 ± 0.90 % of control			
